# Measured values from publication PMC9743094, “Synthesis and Evaluation of Polymyxins Bearing Reductively Labile Disulfide-Linked Lipids” (Journal of Medicinal Chemistry, 2022).
# Positions of bridges follow the written chain, without caps; N, C: chain ends. Non-standard residues stand in square brackets, D forms with d. Residues, ends and D or L forms follow the SMILES beside them. *: point of attachment. S(2-cyclohexylethyl) = C1CCC(CCS*)CC1; S(3-Cl-benzyl) = Clc1cccc(CS*)c1; X3 = c1ccc(Oc2ccc(CS*)cc2)cc1; X5 = c1ccc(-c2ccc(CS*)cc2)cc1; S(3-Methylbutyl) = CC(C)CCS*; Dab = NCC[C@H](N)C(=O)O; X1 = CC(C)CCCCS*; X4 = CCCCCCS*
# What was measured:
# [1] = tested on: A. baumannii (ATCC 19606); format: cell-based; conditions: ATCC 19606
# Method: (§1) Minimum inhibitory concentrations (MICs) on relevant Gram-negative bacteria were determined by broth microdilution, in accordance with CLSI guidelines. Indicated bacteria were taken from glycerol stocks and incubated overnight on blood agar at 37 °C. Well-isolated colonies were taken, suspended in TSB (5 mL), and grown to an OD600 of 0.5. Compounds to be tested were dissolved in DMSO (6.4 mg/mL), diluted in cation-adjusted Mueller–Hinton Broth (CAMHB) (12.5 and 20 μg/mL Mg^2+ and Ca^2+, respectively), and diluted serially on polypropylene microtiter plates. To the diluted compounds (50 μL per well) was added 50 μL of relevant bacterial suspension, to yield a final concentration of 10^6 CFU/mL. Plates were covered by adhesive gas-permeable membranes and incubated at 37 °C. MIC was read out as the lowest concentration that inhibited visual bacterial growth. Shown values are consistent results from at least duplicate experiments.
# [2] = tested on: P. aeruginosa (ATCC 27853); format: cell-based; conditions: ATCC 27853
# Method: as §1
# E. coli (ATCC 25922) = format: cell-based; conditions: ATCC 25922
# Method: as §1
# [3] = tested on: K. pneumoniae (ATCC 13883); format: cell-based; conditions: ATCC 13883
# Method: as §1
# [4] = tested on: differentiated conditionally immortalized PTECs (ciPTECs, OAT-1); test: ciPTEC toxicity assay (PrestoBlue); format: cell-based, human
# Method: ciPTECs (OAT-1) cells,[52],[53] grown to 90–100% confluence, were washed by Hanks’ balanced salt solution (HBSS; Gibco, Life Technologies, Paisley, U.K.) and detached by accutase (4 mL) for 5 min at 37 °C. The cells were then suspended in fresh medium (DMEM/F-12, supplemented with 10% fetal calf serum, insulin (5 μg/mL), transferrin (5 μg/mL), selenium (5 μg/mL) hydrocortisone (35 ng/mL), Epidermal Growth Factor (10 ng/mL) and tri-iodothyronine (40 pg/mL)). Cell density was adjusted to 2.0 × 10^5 cells/mL, of which 100 μL was added to each well of a 96-well plate. The cells were incubated for 24 h at 33 °C, followed by 6 days at 37 °C, in a humidified atmosphere containing 5% (v/v) CO2. The medium was refreshed every second or third day.
# Compounds were dissolved and serially diluted in serum-free medium. Differentiated cells were washed once with HBSS and serially diluted compounds (80 μL/well) were transferred to the ciPTEC-containing plate. Compounds were incubated for 24 h at 37 °C; the cells were washed by HBSS, followed by incubation with 10% PrestoBlue cell viability reagent (Thermo Scientific, Vienna, Austria) in HBSS at 37 °C in the dark. Fluorescence was recorded (excitation: 530 nm, emission: 590 nm). Raw data are corrected for PrestoBlue background fluorescence and reported relative to the no-treatment control (cells with medium only). Viability data were fitted with GraphPad Prism software (version 5.03; GraphPad Software, La Jolla, CA), by nonlinear regression with 0 as bottom constraint. Presented data are based on triplicates.
# Toxicity assessment on PTECs
# Table S1. TC50 values for polymyxin analogues. Toxicity assessment on proximal tubular epithelial cells
# performed using PrestoBlue™ assay. TC50 values are derived after non-linear regression analysis on cell viability
# correspond to data obtained from 2 different batches of cells/analyses on different days. As the value for
# polymyxin B differs 2-fold, values in the manuscript are presented relative to the polymyxin B value.
# Compound TC50 (µ M) Compound TC50 (µ M)
# Polymyxin B 80 Polymyxin B 41
# Figure S3. Representative traces of ciPTECs’ viability after incubation with analogues for 24 hours. Shown data are based on […]
SMILES,MIC A. baumannii (ATCC 19606) [1] [µg/mL],MIC P. aeruginosa (ATCC 27853) [2] [µg/mL],MIC E. coli (ATCC 25922) (E. coli (ATCC 25922)) [µg/mL],MIC K. pneumoniae (ATCC 13883) [3] [µg/mL],"TC50, Day 2 [4] [µM]",ciPTEC Toxicity Index (relative to polymyxin B) [4],"TC50, Day 1 [4] [µM]"
CC(C)C[C@@H]1NC(=O)[C@@H](Cc2ccccc2)NC(=O)[C@H](CCN)NC(=O)[C@@H](NC(=O)[C@H](CCN)NC(=O)[C@@H](NC(=O)[C@H](N)CSSCc2ccc(-c3ccccc3)cc2)[C@@H](C)O)CCNC(=O)[C@H]([C@@H](C)O)NC(=O)[C@H](CCN)NC(=O)[C@H](CCN)NC1=O [Compound 36] (H-[dC](X5)T[Dab][Dab][Dab][dF]L[Dab][Dab]T; lactam 4-C),1,2,4,1,68,1.7,–
CC(C)CCSSC[C@@H](NC(=O)CN)C(=O)N[C@H](C(=O)N[C@@H](CCN)C(=O)N[C@H]1CCNC(=O)[C@H]([C@@H](C)O)NC(=O)[C@H](CCN)NC(=O)[C@H](CCN)NC(=O)[C@H](CC(C)C)NC(=O)[C@@H](Cc2ccccc2)NC(=O)[C@H](CCN)NC1=O)[C@@H](C)O [Compound 22b] (H-G[dC](S(3-Methylbutyl))T[Dab][Dab][Dab][dF]L[Dab][Dab]T; lactam 5-C),1,1,2,0.5,–,–,163
CC(C)C[C@@H]1NC(=O)[C@@H](Cc2ccccc2)NC(=O)[C@H](CCN)NC(=O)[C@@H](NC(=O)[C@H](CCN)NC(=O)[C@@H](NC(=O)[C@H](N)CSSCCC2CCCCC2)[C@@H](C)O)CCNC(=O)[C@H]([C@@H](C)O)NC(=O)[C@H](CCN)NC(=O)[C@H](CCN)NC1=O [Compound 19b] (H-[dC](S(2-cyclohexylethyl))T[Dab][Dab][Dab][dF]L[Dab][Dab]T; lactam 4-C),1,2,1,1,51,–,–
CC(C)C[C@@H]1NC(=O)[C@@H](Cc2ccccc2)NC(=O)[C@H](CCN)NC(=O)[C@@H](NC(=O)[C@H](CCN)NC(=O)[C@@H](NC(=O)[C@H](N)CSSCc2ccc(Oc3ccccc3)cc2)[C@@H](C)O)CCNC(=O)[C@H]([C@@H](C)O)NC(=O)[C@H](CCN)NC(=O)[C@H](CCN)NC1=O [Compound 37] (H-[dC](X3)T[Dab][Dab][Dab][dF]L[Dab][Dab]T; lactam 4-C),1,4,4,1,72,1.8,–
CCCCCCSSC[C@@H](N)C(=O)N[C@H](C(=O)N[C@@H](CCN)C(=O)N[C@H]1CCNC(=O)[C@H]([C@@H](C)O)NC(=O)[C@H](CCN)NC(=O)[C@H](CCN)NC(=O)[C@H](CC(C)C)NC(=O)[C@@H](Cc2ccccc2)NC(=O)[C@H](CCN)NC1=O)[C@@H](C)O [Compound 17b] (H-[dC](X4)T[Dab][Dab][Dab][dF]L[Dab][Dab]T; lactam 4-C),1,2,2,0.5,–,3.0,240
CC(C)CCSSC[C@H](N)C(=O)N[C@H](C(=O)N[C@@H](CCN)C(=O)N[C@H]1CCNC(=O)[C@H]([C@@H](C)O)NC(=O)[C@H](CCN)NC(=O)[C@H](CCN)NC(=O)[C@H](CC(C)C)NC(=O)[C@@H](Cc2ccccc2)NC(=O)[C@H](CCN)NC1=O)[C@@H](C)O [Compound 18a] (H-C(S(3-Methylbutyl))T[Dab][Dab][Dab][dF]L[Dab][Dab]T; lactam 4-C),>32,2,16,8,–,9.8,786
CCCCCCSSC[C@H](N)C(=O)N[C@H](C(=O)N[C@@H](CCN)C(=O)N[C@H]1CCNC(=O)[C@H]([C@@H](C)O)NC(=O)[C@H](CCN)NC(=O)[C@H](CCN)NC(=O)[C@H](CC(C)C)NC(=O)[C@@H](Cc2ccccc2)NC(=O)[C@H](CCN)NC1=O)[C@@H](C)O [Compound 17a] (H-C(X4)T[Dab][Dab][Dab][dF]L[Dab][Dab]T; lactam 4-C),>32,2,8,4,–,5.3,421
CC(C)CCCCSSC[C@@H](N)C(=O)N[C@H](C(=O)N[C@@H](CCN)C(=O)N[C@H]1CCNC(=O)[C@H]([C@@H](C)O)NC(=O)[C@H](CCN)NC(=O)[C@H](CCN)NC(=O)[C@H](CC(C)C)NC(=O)[C@@H](Cc2ccccc2)NC(=O)[C@H](CCN)NC1=O)[C@@H](C)O [Compound 20b] (H-[dC](X1)T[Dab][Dab][Dab][dF]L[Dab][Dab]T; lactam 4-C),2,16,4,2,135,3.3,–
CC(C)CCCCSSC[C@@H](NC(=O)CN)C(=O)N[C@H](C(=O)N[C@@H](CCN)C(=O)N[C@H]1CCNC(=O)[C@H]([C@@H](C)O)NC(=O)[C@H](CCN)NC(=O)[C@H](CCN)NC(=O)[C@H](CC(C)C)NC(=O)[C@@H](Cc2ccccc2)NC(=O)[C@H](CCN)NC1=O)[C@@H](C)O [Compound 24b] (H-G[dC](X1)T[Dab][Dab][Dab][dF]L[Dab][Dab]T; lactam 5-C),1,2,2,1,63,–,–
CC(C)C[C@@H]1NC(=O)[C@@H](Cc2ccccc2)NC(=O)[C@H](CCN)NC(=O)[C@@H](NC(=O)[C@H](CCN)NC(=O)[C@@H](NC(=O)[C@@H](CSSCCC2CCCCC2)NC(=O)CN)[C@@H](C)O)CCNC(=O)[C@H]([C@@H](C)O)NC(=O)[C@H](CCN)NC(=O)[C@H](CCN)NC1=O [Compound 23b] (H-G[dC](S(2-cyclohexylethyl))T[Dab][Dab][Dab][dF]L[Dab][Dab]T; lactam 5-C),1,1,2,1,58,–,–
CCCCCCSSC[C@@H](NC(=O)CN)C(=O)N[C@H](C(=O)N[C@@H](CCN)C(=O)N[C@H]1CCNC(=O)[C@H]([C@@H](C)O)NC(=O)[C@H](CCN)NC(=O)[C@H](CCN)NC(=O)[C@H](CC(C)C)NC(=O)[C@@H](Cc2ccccc2)NC(=O)[C@H](CCN)NC1=O)[C@@H](C)O [Compound 21b] (H-G[dC](X4)T[Dab][Dab][Dab][dF]L[Dab][Dab]T; lactam 5-C),1,2,2,1,–,4.4,357
CC(C)C[C@@H]1NC(=O)[C@@H](Cc2ccccc2)NC(=O)[C@H](CCN)NC(=O)[C@@H](NC(=O)[C@H](CCN)NC(=O)[C@@H](NC(=O)[C@H](N)CSSCc2cccc(Cl)c2)[C@@H](C)O)CCNC(=O)[C@H]([C@@H](C)O)NC(=O)[C@H](CCN)NC(=O)[C@H](CCN)NC1=O [Compound 38] (H-[dC](S(3-Cl-benzyl))T[Dab][Dab][Dab][dF]L[Dab][Dab]T; lactam 4-C),1,4,1,0.5,74,–,–
